Our source for the IC50 and EC50 values is US10981932B2, “Macrocyclic indole derivatives” (Bayer Aktiengesellschaft, priority 2016, dated 2021).

Counter-ions that a name gives are not always drawn. Like-named read-outs stand apart in the source and are kept apart here. Where only a bound is given, the exact number is not on record here.

Usually EC50 stands for the concentration at which the effect is half-maximal. The low end stands for an effect from little substance, the high end for a need for much substance.

Assay [1] has as its system SUDHL10. Nature of the assay: Anti-proliferative effect (CellTiter-Glo, 72 h), SUDHL10. Format: cell-based. The conditions noted are these: Homo sapiens, SU-DHL10, 72 h, SUDHL10 cells, antiproliferation, 72 h incubation, median, read-out: Antiproli SUDHL10 [M] (median). A digest of the protocol:
(§1)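 Cells plated and incubated with compounds for 72 h at 37 °C, with a parallel day 0 reference plate for time-zero signal. Viability read by CellTiter-Glo luminescence after 10 min, measured identically on the day 0 and 72 h plates.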
For orientation: Cellular ATP, detected with luciferase, serves as a proxy for viable cell number.

Assay [2] deals with SUDHL10. Nature of the assay: Induction of caspase-3/7 activity (Caspase-Glo 3/7), SUDHL10. It counts as cell-based. The conditions noted are these: Homo sapiens, SU-DHL10, 3 h, caspase-3/7 induction, SUDHL10 cells, 3 h treatment; median. A digest of the protocol: (§2)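 DLBCL lines SUDHL5 and SUDHL10 treated with compounds for 3 h at 37 °C; caspase-3/7 activity read by Caspase-Glo 3/7 luminescence. Medium-only background subtracted; EC50 fitted with bottom fixed at 1 and top fixed at the reference compound's maximal induction.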

The next assay concerns A2780. In words: Anti-proliferative effect (CellTiter-Glo, 72 h), A2780. Format: cell-based. The settings on record: A2780 cells, median, read-out: IC50 antiproliferation assay A2780 [M] (median). The method in brief:
as §1

Assay [3] has as its system SUDHL5. In words: Induction of caspase-3/7 activity (Caspase-Glo 3/7), SUDHL5. The settings on record: Homo sapiens, SU-DHL-5, 3 h, caspase-3/7 induction, SUDHL5 cells, 3 h treatment; median. It counts as cell-based. The method in brief: as §2
Assay [4] concerns SUDHL10. In words: Induction of cytotoxicity (CellTiter-Glo, 5 h), SUDHL10. The settings on record: Homo sapiens, SU-DHL10, 5 h, read-out: Cytotox SUDHL10 [M] (median), SUDHL10 cells, cytotoxicity induction, CellTiter-Glo, 5 h incubation, median.
Assay [5] relates to SUDHL5. In words: Induction of cytotoxicity (CellTiter-Glo, 5 h), SUDHL5. The conditions noted are these: Homo sapiens, SU-DHL-5, 5 h, read-out: Cytotox SUDHL5 [M] (median), SUDHL5 cells, cytotoxicity induction, CellTiter-Glo, 5 h incubation, median.
The next assay addresses MCL-1 (Homo sapiens, UniProt Q07820). In words: Protein-protein interaction assay MCL-1/Noxa BH3 peptide (MCL-1 assay), TR-FRET. The settings on record: MBP-MCL-1 / Noxa BH3-derived peptide, median. It counts as binding. The method in brief: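 IC50 came from a 4-parameter fit of the normalized 665/620 nm TR-FRET ratio (anti-MBP Eu-cryptate/streptavidin-XL665). Compounds (0.1 nM–20 μM, duplicates) were preincubated 10 min at 22 °C with 1 nM MBP-MCL-1 in pH 7 Tris/NaCl/KF buffer, then read after 1 h at 22 °C plus overnight at 4 °C.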

In assay [6] the test system is SUDHL5. In words: Anti-proliferative effect (CellTiter-Glo, 72 h), SUDHL5. Format: cell-based. The conditions noted are these: Homo sapiens, SU-DHL-5, 72 h, SUDHL5 cells, antiproliferation, 72 h incubation, median, read-out: Antiproli SUDHL5 [M] (median). A digest of the protocol: as §1

Chain of MCL-1 (Q07820 whole entry): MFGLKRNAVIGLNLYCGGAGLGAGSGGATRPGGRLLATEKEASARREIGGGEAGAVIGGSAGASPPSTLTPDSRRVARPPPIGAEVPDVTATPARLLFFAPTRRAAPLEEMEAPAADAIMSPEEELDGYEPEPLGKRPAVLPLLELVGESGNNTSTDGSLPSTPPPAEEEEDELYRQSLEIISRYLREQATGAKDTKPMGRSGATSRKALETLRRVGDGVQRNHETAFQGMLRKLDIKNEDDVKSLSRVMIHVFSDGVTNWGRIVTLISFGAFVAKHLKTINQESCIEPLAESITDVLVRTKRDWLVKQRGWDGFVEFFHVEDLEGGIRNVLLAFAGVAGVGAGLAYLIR

Regarding `Cc1c2c(nn1C)CCCCCCn1c(C(=O)O)c(CCCOc3cccc4ccccc34)c3cccc-2c31` (racemic) [Example 190, (rac)-2,3-dimethyl-7-[3-(1-naphthyloxy)propyl]-10,11,12,13,14,15-hexahydro-2H-pyrazolo[4′,3′:4,5]azacycloundecino[3,2,1-hi]indole-8-carboxylic Acid], the IC50 with SUDHL10 [1] was found to be 5.34e-06 M; in the assay on A2780 (Homo sapiens, A2780, 72 h), 2.02e-05 M; with SUDHL10 [4], 9.19e-06 M; in the assay with SUDHL5 [5], 3.85e-06 M; against MCL-1, 0.00546 µM; in the assay on SUDHL5 [6], 2.35e-06 M. For the same compound, the results for the EC50 in the assay with SUDHL10 [2] and in the assay on SUDHL5 [3] were 7.26 µM and 3.13 µM, respectively.
With `CCCc1nn(C)c2c1-c1c(C)ccc3c(CCCOc4cccc5ccccc45)c(C(=O)O)n(c13)CCCN(C)C2` (racemic) [Example 193, (rac)-7,9,12-trimethyl-1-[3-(naphthalen-1-yloxy)propyl]-1-propyl-4,5,6,7,8,9-hexahydropyrazolo[3′,4′:7,8][1,5]diazecino[9,10,1-hi]indole-2-carboxylic Acid], the IC50 in the assay with SUDHL10 [1] came to 7.14e-06 M; in the assay with A2780 (Homo sapiens, A2780, 72 h), 1.9e-05 M; in the assay with SUDHL10 [4], 7.65e-06 M; in the assay on SUDHL5 [5], 2.3e-06 M; against MCL-1, 0.00233 µM; in the assay with SUDHL5 [6], 4.45e-06 M. The EC50 was 8.35 µM with SUDHL10 [2] and 2.47 µM with SUDHL5 [3].
As for `CCc1nn(CCN2CCOCC2)c2c1-c1cccc3c(CCCOc4cccc5ccccc45)c(C(=O)O)n(c13)CCCCOC2` (racemic) [Example 198, (rac)-3-ethyl-1-[2-(morpholin-4-yl)ethyl]-7-[3-(naphthalen-1-yloxy)propyl]-1,10,11,12,13,15-hexahydropyrazolo[4′,3′:9,10][1,6]oxazacycloundecino[8,7,6-hi]indole-8-carboxylic Acid], the IC50 in the assay on SUDHL10 [1] was 7.48e-06 M; in the assay with A2780 (Homo sapiens, A2780, 72 h), 2.25e-05 M; with SUDHL10 [4], 6.77e-06 M; in the assay with SUDHL5 [5], 2.05e-06 M; against MCL-1 it was 0.0028 µM; in the assay with SUDHL5 [6], 3.35e-06 M. The results for the EC50 with SUDHL10 [2] and in the assay with SUDHL5 [3] were 6.94 µM and 1.72 µM, respectively.
For the compound `CCc1c2c(nn1CCN1CCOCC1)COCCCCn1c(C(=O)O)c(CCCOc3cccc4ccccc34)c3ccc(C)c-2c31` (racemic) [Example 204, (rac)-3-ethyl-4-methyl-2-[2-(morpholin-4-yl)ethyl]-7-[3-(naphthalen-1-yloxy)propyl]-2,10,11,12,13,15-hexahydropyrazolo[4′,3′:9,10][1,6]oxazacycloundecino[8,7,6-hi]indole-8-carboxylic Acid], the IC50 with SUDHL10 [1] came to 5.15e-06 M; in the assay on A2780 (Homo sapiens, A2780, 72 h), 1.78e-05 M; in the assay on SUDHL10 [4] it was 5.63e-06 M; in the assay with SUDHL5 [5] it was 1.9e-06 M; at MCL-1, 0.00375 µM; in the assay with SUDHL5 [6] it was 4.17e-06 M. Further, the EC50 amounted to 6.09 µM in the assay with SUDHL10 [2] and 1.73 µM with SUDHL5 [3].
`COc1c2c(nn1C)COCCCCn1c(C(=O)O)c(CCCOc3cccc4ccccc34)c3cccc-2c31` (racemic) [Example 207, (rac)-3-methoxy-2-methyl-7-[3-(naphthalen-1-yloxy)propyl]-2,10,11,12,13,15-hexahydropyrazolo[4′,3′:9,10][1,6]oxazacycloundecino[8,7,6-hi]indole-8-carboxylate]: the IC50 in the assay on SUDHL10 [1] turned out to be 7.76e-06 M; with A2780 (Homo sapiens, A2780, 72 h) it was 2.47e-05 M; with SUDHL10 [4] it was 1.08e-05 M; in the assay on SUDHL5 [5], 4.45e-06 M; against MCL-1, 0.00681 µM; in the assay with SUDHL5 [6], 5.28e-06 M. The figures for the EC50 in the assay with SUDHL10 [2] and in the assay with SUDHL5 [3] were 11.4 µM and 4.85 µM, respectively.
With `Cn1nc(COC2CC2)c2c1COCCCCn1c(C(=O)O)c(CCCOc3cccc4ccccc34)c3cccc-2c31` (racemic) [Example 213, (rac)-3-[(cyclopropyloxy)methyl]-1-methyl-7-[3-(naphthalen-1-yloxy)propyl]-1,10,11,12,13,15-hexahydropyrazolo[4′3′:9,10][1,6]oxazacycloundecino[8,7,6,6-hi]indole-8-carboxylic Acid], the IC50 in the assay with SUDHL10 [1] is 5.12e-06 M; with A2780 (Homo sapiens, A2780, 72 h), 2.91e-05 M; in the assay with SUDHL10 [4], above 3.3e-05 M; in the assay with SUDHL5 [5], above 3.3e-05 M; on MCL-1, 0.0134 µM; with SUDHL5 [6], 2.49e-06 M. The EC50 in the assay on SUDHL10 [2] and in the assay with SUDHL5 [3] was above 33 µM each time.
With `Cn1nc(CC(F)(F)F)c2c1COCCCCn1c(C(=O)O)c(CCCOc3cccc4ccccc34)c3cccc-2c31` (racemic) [Example 219, (rac)-1-methyl-7-[3-(naphthalen-1-yloxy)propyl]-3-(2,2,2-trifluoroethyl)-1,10,11,12,13,15-hexahydropyrazolo[4′,3′:9,10][1,6]oxazacycloundecino[8,7,6-hi]indole-8-carboxylic Acid], the IC50 with SUDHL10 [1] was 1.36e-05 M; in the assay with A2780 (Homo sapiens, A2780, 72 h) it was above 3.3e-05 M; in the assay on SUDHL10 [4], 2.47e-05 M; with SUDHL5 [5], 9.71e-06 M; on MCL-1, 0.014 µM; in the assay on SUDHL5 [6] it was 9.95e-06 M. Besides, the values for the EC50 in the assay with SUDHL10 [2] and with SUDHL5 [3] were above 33 µM and 12.8 µM, respectively.
`Cn1ccnc1COCc1nn(C)c2c1-c1cccc3c(CCCOc4cccc5ccccc45)c(C(=O)O)n(c13)CCCCOC2` (racemic) [Example 231, (rac)-1-methyl-3-{[(1-methyl-1H-imidazol-2-yl)methoxyl]methyl}-7-[3-(naphthalen-1-yloxy)propyl]-1,10,11,12,13,15-hexahydropyrazolo[4′,3′:9,10][1,6]oxazacycloundecino[8,7,6-hi]indole-8-carboxylic Acid]: the IC50 is 1.14e-05 M in the assay on SUDHL10 [1]; above 3.3e-05 M with A2780 (Homo sapiens, A2780, 72 h); 1.6e-05 M in the assay on SUDHL10 [4]; 1.33e-05 M in the assay with SUDHL5 [5]; 0.0262 µM at MCL-1; 8.1e-06 M in the assay on SUDHL5 [6]. In addition, the EC50 was 16.1 µM with SUDHL10 [2] and 17.3 µM with SUDHL5 [3].
On to `Cn1nc2c(c1OC(F)F)-c1cccc3c(CCCOc4cccc5ccccc45)c(C(=O)O)n(c13)CCCCOC2` (racemic) [Example 234, (rac)-3-(difluoromethoxy)-2-methyl-7-[3-(naphthalen-1-yloxy)propyl]-2,10,11,12,13,15-hexahydropyrazolo[4′,3′:9,10][1,6]oxazacycloundecino[8,7,6-hi]indole-8-carboxylic Acid], for which the IC50 with SUDHL10 [1] was 1.98e-05 M; in the assay with A2780 (Homo sapiens, A2780, 72 h), 3.04e-05 M; in the assay on SUDHL10 [4], above 3.3e-05 M; with SUDHL5 [5], 2.71e-05 M; against MCL-1 it was 0.0139 µM; in the assay on SUDHL5 [6], 3.15e-05 M. Moreover, the results for the concentration giving a half-maximal response (EC50) with SUDHL10 [2] and in the assay on SUDHL5 [3] were 31.6 µM and 30.1 µM, respectively.
For `Cc1nn(CCN(C)C)c2c1-c1cccc3c(CCCOc4cccc5ccccc45)c(C(=O)O)n(c13)CCCCOC2` (racemic) [Example 244, (rac)-1-[2-(dimethylamino)ethyl]-3-methyl-7-[3-(naphthalen-1-yloxy)propyl]-1,10,11,12,13,15-hexahydropyrazolo[4′,3′:9,10][1,6]oxazacycloundecino[8,7,6-hi]indole-8-carboxylic Acid Trifluoroacetic Acid Salt], the IC50 with SUDHL10 [1] was 5e-06 M; in the assay with A2780 (Homo sapiens, A2780, 72 h), 1.84e-05 M; in the assay with SUDHL10 [4], 6.6e-06 M; in the assay with SUDHL5 [5], 3.2e-06 M; on MCL-1, 0.00664 µM; with SUDHL5 [6], 5.23e-06 M. In addition, the concentration for a half-maximal effect (EC50) in the assay on SUDHL10 [2] was found to be 6.42 µM; in the assay with SUDHL5 [3] it was 2.69 µM.
Take `O=C(O)c1c(CCCOc2cccc3ccccc23)c2cccc3c2n1CCCCOCc1nn2c(c1-3)OCCC2` (racemic) [Example 247, (rac)-1-[3-(naphthalen-1-yloxy)propyl]-4,5,6,7,13,14-hexahydro-9H,12H-[1,3]oxazino[3″,2″: 1′,5′]pyrazolo[4′,3′:9,10][1,6]oxazacycloundecino[8,7,6-hi]indole-2-carboxylic Acid]: the IC50 in the assay with SUDHL10 [1] was 9.3e-06 M; with A2780, above 3.3e-05 M; with A2780 (Homo sapiens, A2780, 72 h), 3.04e-05 M; with SUDHL10 [4] it was 1.9e-05 M; in the assay on SUDHL5 [5], 6.79e-06 M; against MCL-1, 0.00615 µM. Moreover, the IC50 in the assay with SUDHL5 [6] came to 5.26e-06 M. The EC50 with SUDHL10 [2] was 17.3 µM; in the assay with SUDHL5 [3], 5.21 µM.
